Test results published in ChEMBL document CHEMBL1255369, “In vitro susceptibility of isolates of Francisella tularensis types A and B from North America” (2008).
Values after ≈ are worked out from the molar mass of the structure shown.

Key:
Assay type in all cases: functional
[1] = (§1) Antimicrobial activity against Francisella tularensis subsp. holarctica after 48 hrs by broth microdilution method
[2] = (§2) Antimicrobial activity against Francisella tularensis subsp. tularensis after 48 hrs by broth microdilution method
[3] = Antimicrobial activity against Francisella tularensis subsp. holarctica LVS after 48 hrs by broth microdilution method
[4] = tested on: Francisella tularensis subsp. holarctica; assay: as §1
[5] = tested on: Francisella tularensis subsp. tularensis; assay: as §2

Molecule	MIC50 [1]	MIC90 [1]	MIC50 [2]	MIC90 [2]	MIC [3]	MIC [2]	MIC50 [4]	MIC90 [4]	MIC50 [5]	MIC90 [5]
O=C(N[C@H](CO)[C@H](O)c1ccc([N+](=O)[O-])cc1)C(Cl)Cl [CHLORAMPHENICOL]	2 µg/mL (≈ 6.19 µM)	2 µg/mL (≈ 6.19 µM)	1 µg/mL (≈ 3.09 µM)	2 µg/mL (≈ 6.19 µM)	–	–	–	–	–	–
O=C(O)c1cn(C2CC2)c2cc(N3CCNCC3)c(F)cc2c1=O [CIPROFLOXACIN]	0.03 µg/mL (≈ 0.0905 µM)	0.06 µg/mL (≈ 0.181 µM)	0.015 µg/mL (≈ 0.0453 µM)	0.03 µg/mL (≈ 0.0905 µM)	–	–	–	–	–	–
C[C@H]1c2cccc(O)c2C(=O)C2=C(O)[C@]3(O)C(=O)C(C(N)=O)=C(O)[C@@H](N(C)C)[C@@H]3[C@@H](O)[C@@H]21.O [DOXYCYCLINE]	1 µg/mL	2 µg/mL	0.5 µg/mL	1 µg/mL	–	–	–	–	–	–
CC[C@H]1OC(=O)[C@H](C)[C@@H](O[C@H]2C[C@@](C)(OC)[C@@H](O)[C@H](C)O2)[C@H](C)[C@@H](O[C@@H]2O[C@H](C)C[C@H](N(C)C)[C@H]2O)[C@](C)(O)C[C@@H](C)C(=O)[C@H](C)[C@@H](O)[C@]1(C)O [ERYTHROMYCIN]	2 µg/mL (≈ 2.73 µM)	2 µg/mL (≈ 2.73 µM)	0.5 µg/mL (≈ 0.681 µM)	0.5 µg/mL (≈ 0.681 µM)	> 256 µg/mL	0.5 µg/mL (≈ 0.681 µM)	–	–	–	–
C[C@H]1COc2c(N3CCN(C)CC3)c(F)cc3c(=O)c(C(=O)O)cn1c23.C[C@H]1COc2c(N3CCN(C)CC3)c(F)cc3c(=O)c(C(=O)O)cn1c23.O [LEVOFLOXACIN]	0.03 µg/mL	0.06 µg/mL	0.03 µg/mL	0.06 µg/mL	–	–	–	–	–	–
CN[C@@H]1[C@H](O[C@H]2[C@H](O[C@H]3[C@H](O)[C@@H](O)[C@H](N=C(N)N)[C@@H](O)[C@@H]3N=C(N)N)O[C@@H](C)[C@]2(O)C=O)O[C@@H](CO)[C@H](O)[C@H]1O [STREPTOMYCIN]	1 µg/mL (≈ 1.72 µM)	2 µg/mL (≈ 3.44 µM)	1 µg/mL (≈ 1.72 µM)	2 µg/mL (≈ 3.44 µM)	–	–	–	–	–	–
CN(C)[C@@H]1C(O)=C(C(N)=O)C(=O)[C@@]2(O)C(O)=C3C(=O)c4c(O)cccc4[C@@](C)(O)[C@H]3C[C@@H]12 [TETRACYCLINE]	0.5 µg/mL (≈ 1.13 µM)	1 µg/mL (≈ 2.25 µM)	0.5 µg/mL (≈ 1.13 µM)	1 µg/mL (≈ 2.25 µM)	–	–	–	–	–	–
GENTAMICIN	–	–	–	–	–	–	0.12 µg/mL	0.25 µg/mL	0.06 µg/mL	0.12 µg/mL
